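Cultured in 96-well plates, cells were exposed to test compound for 48 hours across five concentrations. At the GI50, growth is halved.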 Activity calls are given as the source filed them. Rule as the data show it: active = GI50 up to about 1.1 µM and inactive = higher.
What was measured:
Assay in all cases: NCI anticancer screen, dose series, 48 h
A498 = tested on: A498
HL-60 = tested on: HL-60
COLO 205 = tested on: COLO 205
SNB-19 = tested on: SNB-19
RPMI-8226 = tested on: RPMI-8226
LOX IMVI = tested on: LOX IMVI
MOLT-4 = tested on: MOLT-4
UACC-62 = tested on: UACC-62
NCI-H23 = tested on: NCI-H23
SW-620 = tested on: SW-620
NCI-H460 = tested on: NCI-H460
MCF7 = tested on: MCF7
MDA-N = tested on: MDA-N
MDA-MB-435 = tested on: MDA-MB-435
M14 = tested on: M14
Malme-3M = tested on: Malme-3M
IGROV-1 = tested on: IGROV-1
SK-MEL-5 = tested on: SK-MEL-5
SK-MEL-28 = tested on: SK-MEL-28
HCC 2998 = tested on: HCC 2998

Measured: GI50

NC(=O)NOCC1NC(=O)NC1=O (stereo not drawn)
inactive: A498 > 100 µM | HL-60 19.3 µM | COLO 205 > 100 µM | SNB-19 > 100 µM | RPMI-8226 > 100 µM | LOX IMVI > 100 µM | MOLT-4 > 100 µM | UACC-62 > 100 µM | NCI-H23 > 100 µM | SW-620 > 100 µM | NCI-H460 > 100 µM | MCF7 > 100 µM | MDA-N > 100 µM | MDA-MB-435 > 100 µM | M14 > 100 µM | Malme-3M > 100 µM | IGROV-1 > 100 µM | SK-MEL-5 > 100 µM | SK-MEL-28 > 100 µM

Clc1ccccc1/C=c1\nc(-c2ccccc2)n2c1nc1ccccc12
inactive: A498 > 100 µM | HL-60 > 100 µM | COLO 205 > 100 µM | SNB-19 40.3 µM | RPMI-8226 84.3 µM | LOX IMVI > 100 µM | MOLT-4 > 100 µM | UACC-62 30.8 µM | NCI-H23 17.8 µM | SW-620 > 100 µM | NCI-H460 > 100 µM | MCF7 > 100 µM | MDA-N 30.6 µM | MDA-MB-435 > 100 µM | M14 > 100 µM | Malme-3M > 100 µM | IGROV-1 27.2 µM | SK-MEL-5 > 100 µM | SK-MEL-28 > 100 µM

Cc1nc2c(=O)[nH]c(=O)nc-2n(CCO)c1C
inactive: A498 > 100 µM | HCC 2998 > 100 µM | COLO 205 > 100 µM | SNB-19 > 100 µM | RPMI-8226 > 100 µM | LOX IMVI > 100 µM | MOLT-4 > 100 µM | UACC-62 > 100 µM | NCI-H23 > 100 µM | SW-620 > 100 µM | NCI-H460 > 100 µM | MCF7 > 100 µM | MDA-N > 100 µM | MDA-MB-435 > 100 µM | M14 > 100 µM | Malme-3M > 100 µM | IGROV-1 > 100 µM | SK-MEL-5 > 100 µM | SK-MEL-28 > 100 µM

CN(C)c1ccc(C2CC(c3ccc4ccccc4c3O)=NN2)cc1 (stereo not drawn)
inactive: A498 22.4 µM | HCC 2998 69.7 µM | COLO 205 19.5 µM | RPMI-8226 29.6 µM | MOLT-4 20.3 µM | UACC-62 36.2 µM | NCI-H23 34.5 µM | SW-620 32.9 µM | NCI-H460 32.2 µM | MCF7 27.7 µM | MDA-N 26.5 µM | MDA-MB-435 30.4 µM | M14 31.8 µM | Malme-3M 51.1 µM | IGROV-1 24.9 µM | SK-MEL-5 36 µM | SK-MEL-28 63.1 µM

CN(C)c1cccc(-c2cc(=S)c3cc4c(cc3[nH]2)OCO4)c1
inactive: A498 > 100 µM | HCC 2998 7.89 µM | COLO 205 14.8 µM | SNB-19 4.7 µM | RPMI-8226 > 21.1 µM | LOX IMVI 7.73 µM | MOLT-4 15.8 µM | UACC-62 6.27 µM | NCI-H23 5.62 µM | SW-620 5.15 µM | NCI-H460 4.59 µM | MCF7 4.94 µM | MDA-N 2.83 µM | MDA-MB-435 1.76 µM | M14 5.28 µM | Malme-3M 8.28 µM | IGROV-1 6.38 µM | SK-MEL-5 3.4 µM | SK-MEL-28 > 100 µM

CC(C)(C)[Si](C)(C)OCC1OC(n2ccc(=O)[nH]c2=O)C(O[Si](C)(C)C(C)(C)C)[C@]12O[C@@H]2CO (stereo partly drawn)
inactive: A498 18.6 µM | HCC 2998 20.8 µM | COLO 205 17.5 µM | SNB-19 10.3 µM | RPMI-8226 55.3 µM | LOX IMVI 16.3 µM | MOLT-4 8.3 µM | UACC-62 16.3 µM | NCI-H23 14.1 µM | SW-620 20.2 µM | NCI-H460 14 µM | MCF7 12.1 µM | MDA-N 20.9 µM | MDA-MB-435 16 µM | M14 14.4 µM | IGROV-1 16.3 µM | SK-MEL-5 14 µM | SK-MEL-28 15.9 µM

CN(C)c1ccc(C(Cc2ccccc2)C2NC(=S)NC2=O)cc1 (stereo not drawn)
inactive: A498 > 100 µM | HL-60 29.1 µM | COLO 205 > 100 µM | SNB-19 > 100 µM | RPMI-8226 97.7 µM | LOX IMVI > 100 µM | MOLT-4 61.1 µM | UACC-62 67 µM | NCI-H23 > 100 µM | SW-620 > 100 µM | NCI-H460 99.8 µM | MCF7 > 100 µM | MDA-N > 100 µM | MDA-MB-435 > 75.7 µM | M14 > 100 µM | Malme-3M > 74.8 µM | IGROV-1 > 100 µM | SK-MEL-5 > 100 µM | SK-MEL-28 > 100 µM

C=CCC1CC(n2cc(C)c(=O)[nH]c2=O)OC1CO[Si](C)(C)C(C)(C)C (stereo not drawn)
inactive: A498 19.1 µM | HCC 2998 17.9 µM | COLO 205 13.5 µM | SNB-19 16.2 µM | RPMI-8226 11.9 µM | LOX IMVI 13 µM | UACC-62 17.2 µM | NCI-H23 12.5 µM | SW-620 16.1 µM | NCI-H460 16.5 µM | MCF7 11.5 µM | MDA-N 14 µM | MDA-MB-435 13.4 µM | M14 18.6 µM | Malme-3M 10.5 µM | IGROV-1 11.2 µM | SK-MEL-5 15.4 µM | SK-MEL-28 16.3 µM

Reference: ChEMBL document CHEMBL1201862, “PubChem BioAssay data set” (2004)
